Source: US20090222217A1, “Method of calculating environment risk of a chemical in soil” (AMSTED Industries Inc., priority 2008, published 2009)

Key:
[1] = sand, Foc 0.0003 mg/mg; Kd=Foc×Koc
Method: To obtain a value to represent the mobility of each compound, two variables are used: Henry's Law constant (H), which focuses on the physical chemistry of the chemical and the retardation factor (R), which focuses on the physical and chemical characteristics of the geological environment. The retardation factor was calculated by first calculating the distribution coefficient using Equation 1.
Values for the organic carbon partition coefficient can be obtained from location-specific testing of soil or from various published sources. And the fraction of organic carbon in soil can be obtained from location-specific testing of soil or from various published sources.

[2] = sand, bulk density 1.8 g/cm^3, effective porosity 0.25
Method: Once the distribution coefficient is calculated, the Retardation Factor can be calculated using Equation 2.
where: R is the retardation factor; ρb=bulk density of aquifer matrix (g/cm^3); Kd=distribution coefficient (mL·g^−1); η=effective porosity

[3] = M=(H)(R), sand
Text: With Henry's Law constant and the retardation factor in place, the mobility of a specific compound is expressed as Equation (4):
where: M=mobility; H=Henry's Law constant; R=retardation factor

[4] = more conservative of carcinogenic or chronic, oral or dermal pathway; published sources; cited from earlier work
[5] = published sources; cited from earlier work

Structure (SMILES): c1ccccc1 [benzene]
- Kd, distribution coefficient [1]: 0.0177 mL/g
- retardation factor (R) [2]: 1.13
- mobility factor (M) [3]: 0.2576
- toxicity value (T) [4]: 0.04 mg/kg-day^−1
- Henry's Law constant (H) [5]: 0.228 atm.·mol^−1·m^−3
